Assay results published in the supplement of paper PMC10307832.

Tests used:
Assay in all cases: relative viability (nuclei count vs DMSO), 5 days (fraction); higher = more cells survive
Kobe2602 = compound: C1=CC(=CC=C1NC(=S)NNC2=C(C=C(C=C2[N+](=O)[O-])C(F)(F)F)[N+](=O)[O-])F [Kobe2602]
How it was run: (§1)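 Five library-drug doses spaced by √10 were pinned onto vehicle-anchored 1536-well plates of lung cancer cell lines that had been kept overnight at 37 °C. Cells went 5 days without medium change, then were fixed, permeabilised and Hoechst-stained together, imaged at 4× and counted by MetaXpress. Viability is the ratio of treated-well to vehicle-well nuclei, taken as a median over plates. Plates required control CV below 25% and at least one doubling.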

Cabozantinib = compound: COc1cc2nccc(Oc3ccc(NC(=O)C4(C(=O)Nc5ccc(F)cc5)CC4)cc3)c2cc1OC [Cabozantinib]
How it was run: as §1

Zosuquidar = compound: O[C@@H](COc1cccc2ncccc12)CN1CCN([C@@H]2c3ccccc3[C@@H]3[C@H](c4ccccc42)C3(F)F)CC1 [Zosuquidar]
How it was run: as §1

Cabozantinib + Dasatinib = compound: COc1cc2nccc(Oc3ccc(NC(=O)C4(C(=O)Nc5ccc(F)cc5)CC4)cc3)c2cc1OC [Cabozantinib] + Cc1nc(Nc2ncc(C(=O)Nc3c(C)cccc3Cl)s2)cc(N2CCN(CCO)CC2)n1 [Dasatinib] (partner 0.075 µM)
How it was run: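 Lung cancer cell lines were pin-tool dosed in 1536-well plates on the day after seeding, with either a lone drug or a fixed anchor-drug dose plus five library-drug doses (not always all listed) in √10 steps. Nuclei were counted on 4× images after 5 days. Relative viability is the ratio of treated-well to vehicle-well nuclei counts, with each value a median of duplicate plates.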

| Cell Line | relative viability (Kobe2602; 0.2 µM) | relative viability (Kobe2602; 0.6325 µM) | relative viability (Kobe2602; 2 µM) | relative viability (Kobe2602; 6.325 µM) | relative viability (Kobe2602; 20 µM) | relative viability (Cabozantinib; 0.02 µM) | relative viability (Cabozantinib; 0.06325 µM) | relative viability (Cabozantinib; 0.2 µM) | relative viability (Cabozantinib; 0.6325 µM) | relative viability (Cabozantinib; 2 µM) | relative viability (Zosuquidar; 0.01 µM) | relative viability (Zosuquidar; 0.03162 µM) | relative viability (Zosuquidar; 0.1 µM) | relative viability (Zosuquidar; 0.3162 µM) | relative viability (Zosuquidar; 1 µM) | relative viability (Cabozantinib + Dasatinib; first compound 0.06325 µM) | relative viability (Cabozantinib + Dasatinib; first compound 0.2 µM) | relative viability (Cabozantinib + Dasatinib; first compound 0.6325 µM) | relative viability (Cabozantinib + Dasatinib; first compound 2 µM) | relative viability (Cabozantinib + Dasatinib; first compound 0.02 µM) |
| --- | --- | --- | --- | --- | --- | --- | --- | --- | --- | --- | --- | --- | --- | --- | --- | --- | --- | --- | --- | --- |
| HCC-44 | 0.982 | 1.02 | 0.974 | 0.958 | 0.942 | 1.01 | 1.05 | 1.04 | 1.06 | 1.01 | 1.01 | 1.03 | 0.987 | 1.05 | 0.978 |  |  |  |  |  |
| HCC-78 | 0.984 | 0.975 | 0.968 | 0.918 | 1.15 |  | 0.958 | 0.471 | 0.37 | 0.447 | 1.07 | 1 |  | 0.997 | 0.897 | 0.431 | 0.185 | 0.195 | 0.217 |  |
| HCC-366 | 0.985 | 0.982 | 1.02 | 1.02 | 1.07 | 1.06 | 1.02 | 0.99 | 0.967 | 0.995 | 1 | 1.04 | 0.977 | 1.04 | 0.986 | 0.664 | 0.536 | 0.584 | 0.628 | 0.43 |
| HCC-827 | 1.07 | 1.13 | 1.06 | 1 | 1.02 | 1.07 | 1.01 |  | 1.12 | 1.06 | 0.973 | 0.977 | 0.981 | 1.06 | 0.976 | 0.31 |  | 0.262 | 0.242 | 0.327 |
| HOP-62 | 0.983 | 1.07 | 0.952 | 1.04 | 1.01 | 1.1 | 1.1 | 1.16 | 1.08 | 1.09 | 1.03 | 1.05 | 1.02 | 1.05 | 0.975 | 0.703 | 0.529 | 0.579 | 0.41 | 0.603 |
| IA-LM | 0.932 | 1.08 | 0.923 | 0.895 | 0.929 | 1.21 | 1.09 | 0.9 | 1.04 | 1.27 | 0.939 | 1.01 | 0.838 | 0.945 | 0.865 |  |  |  |  |  |
| LC-2-ad | 0.999 | 1.02 | 0.954 | 0.951 | 1.08 | 0.838 | 1.13 | 0.946 | 0.878 | 0.704 | 0.919 | 1.07 | 0.923 | 1.13 | 0.995 | 0.641 | 0.492 | 0.295 | 0.283 |  |
| LCLC-97TM1 | 1.07 | 1.07 | 0.928 | 0.798 | 1 |  | 1.02 | 1.06 | 0.999 | 1.02 | 0.9 | 1.12 |  | 1.02 | 0.939 | 0.854 | 0.757 | 0.848 | 0.717 | 0.723 |
| LCLC-103H | 1.01 | 1.01 | 0.987 | 0.992 | 0.981 | 0.824 | 1.16 | 1.02 | 1.05 | 0.953 | 0.911 | 0.973 | 0.752 | 1.02 | 1.06 | 0.552 | 0.398 | 0.486 | 0.378 | 0.34 |
| LK-2 | 1.14 | 1.12 | 0.974 | 0.887 | 1.19 | 0.764 | 1.26 | 0.924 | 0.927 | 0.926 | 0.997 | 1.03 | 0.934 | 1.11 | 1.01 | 0.247 |  | 0.341 | 0.46 |  |
| LOU-NH91 | 0.993 | 1.05 | 0.912 | 0.999 | 1.04 | 0.919 | 1.13 | 0.885 | 0.926 | 0.975 | 0.888 | 0.953 | 0.775 | 1.01 | 0.922 | 0.579 |  | 0.578 | 0.547 | 0.432 |
| LU99A | 0.908 | 0.998 | 0.948 | 0.939 | 1.01 | 0.889 | 1.03 | 0.979 | 0.901 | 0.822 | 0.984 | 0.833 | 0.971 | 1.04 | 0.912 | 0.715 | 0.412 | 0.448 | 0.523 | 0.461 |
| LXF-289 | 1.03 | 1.04 | 0.99 | 0.985 | 0.991 | 1.04 | 1.02 | 0.974 | 1.05 | 1.02 | 1.01 | 1.02 | 1.01 | 1.02 | 0.97 | 0.206 | 0.155 | 0.117 | 0.0913 | 0.126 |
| NCI-H23 | 0.97 | 1.26 | 0.944 | 1.12 | 1.1 |  | 1.33 | 0.99 | 0.925 | 0.874 | 0.99 | 0.992 | 0.873 | 1.18 | 0.976 | 1.17 | 0.808 | 0.936 | 0.598 |  |
| NCI-H322M | 0.97 | 1.07 | 1.03 | 0.984 | 1.08 | 0.874 | 1.17 | 0.694 | 0.983 | 0.952 | 0.907 | 1.07 | 0.667 | 0.924 | 0.916 | 0.271 | 0.238 | 0.264 | 0.26 | 0.259 |
| NCI-H1299 | 0.977 | 1.06 | 1.02 | 1.04 | 0.994 | 1.03 | 1.08 | 1.03 | 1.05 | 1.08 | 1.02 | 0.989 | 1.04 | 1.01 | 1 |  |  |  |  |  |
| NCI-H1648 | 1.22 | 0.902 | 0.701 | 0.824 | 0.763 | 0.868 | 0.991 | 0.629 | 1.07 | 0.802 | 0.969 | 0.947 | 0.676 | 0.673 | 0.852 |  |  |  |  |  |
| NCI-H1703 | 0.831 | 1.08 | 0.83 | 0.898 | 0.727 | 0.57 | 0.662 | 0.325 | 0.262 | 0.233 | 1.07 | 1.14 | 0.993 | 1.12 | 1.01 |  |  |  |  |  |
